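Cultured in 96-well plates, cells were exposed to test compound for 48 hours across five concentrations. At the GI50, growth is halved. TGI marks complete inhibition of growth.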
Columns and labels:
Assay in all cases: DTP human tumour cell line panel, 48 h
[1] = test system: RPMI-8226 leukemia
[2] = test system: T-47D breast
[3] = test system: OVCAR-5 ovarian
[4] = test system: MOLT-4 leukemia
[5] = test system: UO-31 renal
[6] = test system: SF-539 CNS
[7] = test system: TK-10 renal
[8] = test system: PC-3 prostate
[9] = test system: A498 renal
[10] = test system: EKVX NSCLC

Compound | TGI [1] | TGI [2] | TGI [3] | TGI [4] | TGI [5] | TGI [6] | TGI [7] | TGI [8] | TGI [9] | TGI [10] | GI50 [1] | GI50 [2] | GI50 [4] | GI50 [5] | GI50 [6] | GI50 [7] | GI50 [8] | GI50 [9] | GI50 [10] | GI50 [3]
CC1(C)C2CCC(=O)C1CC2 (centres undefined) | > 100 µM | > 100 µM | > 100 µM | > 100 µM | > 100 µM | > 100 µM | > 100 µM | > 100 µM | > 100 µM | – | – | – | – | – | – | – | – | – | – | –
N=Nc1c(OC(=O)Nc2cccc(Cl)c2)[nH]c2ccccc12 | 10.7 µM | 7.34 µM | 31.2 µM | 25.8 µM | 13.1 µM | 32.6 µM | 24.6 µM | 14.6 µM | 26.1 µM | 16.8 µM | – | – | – | – | – | – | – | – | – | –
Cc1cccc(NC(=O)Cn2cnc3sc(C(=O)OC(C)C)c(C)c3c2=O)c1 | > 50 µM | > 50 µM | – | > 50 µM | > 50 µM | 21.5 µM | > 50 µM | > 50 µM | > 50 µM | 22.4 µM | > 50 µM | > 50 µM | > 50 µM | > 50 µM | 8.77 µM | 16.7 µM | > 50 µM | 16.1 µM | 7.51 µM | –
COc1ccc(-c2nnc(COc3ccc(C(=O)/C=C/c4ccco4)cc3)o2)cc1 | 5.94 µM | 10.8 µM | 19.1 µM | 9.05 µM | 6.69 µM | 3.63 µM | 6.25 µM | 11.8 µM | 23.6 µM | – | 2.13 µM | 2.91 µM | 2.89 µM | 2.32 µM | 1.8 µM | 2.81 µM | 3.33 µM | 11.4 µM | – | 5.85 µM
Cc1ccccc1S(=O)(=O)OC1NS(=O)(=O)c2ccccc21 (centres undefined) | > 100 µM | > 100 µM | > 100 µM | > 100 µM | > 100 µM | > 100 µM | > 100 µM | > 100 µM | > 100 µM | > 100 µM | – | – | – | – | – | – | – | – | – | –
OCC#Cc1ccccc1C#Cc1ccccc1 | 11.8 µM | 37.6 µM | 28.3 µM | > 100 µM | > 100 µM | – | 26.6 µM | 24.1 µM | – | 34 µM | 3 µM | 18.1 µM | 3.95 µM | 35.2 µM | – | 13.6 µM | 11.5 µM | – | 17.6 µM | 14.4 µM
COc1cc2c3c(n(C)c(=O)c2cc1OC)-c1cc2c(cc1/C3=C\CCN)OCO2 | 0.975 µM | > 100 µM | 3.7 µM | – | 8.9 µM | 3.74 µM | 6.72 µM | 2.94 µM | 27.7 µM | 13.5 µM | 0.061 µM | 1.08 µM | < 0.01 µM | 0.337 µM | 0.215 µM | 1.17 µM | 0.324 µM | 11.4 µM | 1.71 µM | 0.255 µM
O=S(=O)(CCn1c(Sc2ccccc2)c(Sc2ccccc2)c2ccccc21)c1ccccc1 | > 100 µM | > 100 µM | > 100 µM | > 100 µM | > 100 µM | > 100 µM | > 100 µM | > 100 µM | > 100 µM | > 100 µM | – | – | – | – | – | – | – | – | – | –
O=c1c2sccc2n(CC2COc3ccccc3O2)c(=O)n1O (centres undefined) | 24.5 µM | > 100 µM | > 100 µM | > 100 µM | 97.5 µM | > 100 µM | > 100 µM | > 100 µM | 38.1 µM | > 100 µM | 3.9 µM | 16.8 µM | 21.3 µM | 16 µM | 15.3 µM | 30.9 µM | 18.2 µM | 13.3 µM | 35.3 µM | 40 µM
CC(C)[C@H]1COC(=O)N1[C@@H]1C(=O)N([C@@H](CCC(=O)N2CCN(C3CCCC3)CC2)C(=O)N[C@@H]2CCCc3ccccc32)[C@@H]1/C=C/c1cccc(Br)c1 | 3.93 µM | – | – | 7.39 µM | 3.04 µM | – | 3.47 µM | 4.28 µM | 4.04 µM | 15.2 µM | 1.47 µM | 2.26 µM | 1.45 µM | 1.49 µM | – | 1.46 µM | 1.8 µM | 1.4 µM | 3.01 µM | –
COc1cc2c3c(n(C)c(=O)c2cc1OC)-c1cc2c(cc1/C3=C\CCCN)OCO2 | – | > 100 µM | 26.2 µM | 3.64 µM | 20.3 µM | 6.25 µM | > 100 µM | 31.9 µM | 18.2 µM | > 100 µM | – | 10.9 µM | 0.325 µM | 3.18 µM | 1.65 µM | 21.9 µM | 3.31 µM | 2.49 µM | 17.7 µM | 3.75 µM
O=C(/C=C/c1ccncc1)c1cc(Cl)ccc1O | 5.25 µM | 53.1 µM | 50.7 µM | – | 26.7 µM | 41.9 µM | – | 33.6 µM | 21.8 µM | 54.5 µM | 2.34 µM | 18.8 µM | – | 11 µM | 18 µM | – | 14.8 µM | 6.96 µM | 17.2 µM | 24 µM
COc1cc(NCc2ccc3oc(=O)c(-c4ccccc4)nc3c2)cc(OC)c1OC | > 10 µM | > 10 µM | > 10 µM | > 10 µM | > 10 µM | > 10 µM | > 10 µM | > 10 µM | – | > 10 µM | – | – | – | – | – | – | – | – | – | –
COc1cc(/C=C/c2cc(O)c(C(C)=O)c(O)c2)cc2c1O[C@]1(C)CC[C@@H](O)C(C)(C)[C@H]1C2 | – | 64.6 µM | 75.5 µM | 34.7 µM | 65.5 µM | 6.2 µM | > 100 µM | > 100 µM | 48.3 µM | 72.9 µM | – | 6.22 µM | 3.22 µM | 3.22 µM | 1.32 µM | 22.2 µM | 3.75 µM | 4.78 µM | 13.1 µM | 16.3 µM
COc1ccc(-c2nnc(COc3ccc(NC(=O)Nc4cc(C(F)(F)F)cc(C(F)(F)F)c4)cc3F)o2)cc1 | 4.2 µM | 6.94 µM | 9.49 µM | 14.1 µM | 7.84 µM | 5.28 µM | 12.4 µM | 4.34 µM | 5.03 µM | – | 1.35 µM | 2.62 µM | 2.68 µM | 2.09 µM | 2.09 µM | 3.49 µM | 1 µM | 1.56 µM | – | 2.76 µM
